Measurements published in patent US20040018500A1, “Methods and systems for analyzing complex biological systems” (priority 2001, published 2004).

What was measured:
Arabidopsis thaliana = assay: MOA1 phenotypic profiling of Arabidopsis sprayed with unknown and commercial herbicides; assay type: in vivo
[1] = test system: Arabidopsis thaliana plants; assay: SOA1 phenotypic analysis of herbicide-treated Arabidopsis plants; assay type: in vivo
[2] = test system: Saccharomyces cerevisiae wild type strain BY4743; assay: AF1 combined gene expression and metabolite data mapped to KEGG reactions and pathways; assay type: cell-based
From the text: In AF1, two different technologies were utilized: gene expression analysis (for examination of mRNA expression) and metabolite analysis. […] As noted previously, existing metabolic databases may be helpful in practicing the methods and systems of the present invention, but many databases include limitations that make their use in data analysis and pathway mapping less than straightforward. […] This caveat to KEGG makes it difficult to pinpoint the correct pathway when attempting to link a gene to a specific pathway. […] The pathway score indicates how meaningful the mapping is, or how likely it is to be correctly indicative of the pathway involved in the perturbation under examination. The method provides a pathway score based on perturbation levels of genes and/or compounds and the information content of each gene and/or compound in the pathway, i.e., a pathway score indicates the extent to which other pathways are mapped to a gene/compound. For example, imagine that two genes are perturbed in a particular experiment. One gene maps to only one pathway, giving a high degree of probability that the perturbed pathway is the one identified in the mapping. The second gene maps to three pathways. In the later example, there is only one-third the probability that the pathway identified in the mapping is the one perturbed. The present invention provides a method for calculating the pathway scores, so that more weight is given to a score of a gene or compound that maps to only one pathway than to a score of a gene or compound that maps to multiple pathways. […] Where n=the total number of genes in the pathway; ipath—count=the number of pathways containing a gene; and j=the number of genes in the pathway that are perturbed. Another factor to be considered when weighting a pathway score is the degree of perturbation. Degree of perturbation can be calculated, for example, based on a number of standard deviations from a norm, and included in an equation such as the one shown above, so that not only the number of pathways is taken into account, but also accounts for the amount of gene transcript or compound present as compared to a control. Compounds were also linked to pathways using the KEGG database. […] Of the 676 compounds under consideration, 77 were detected in the AF1 samples. […] The multiple mapping feature of KEGG makes it difficult to pinpoint the correct pathway when trying to link a compound to a specific pathway. […] A pathway score calculation is applied to the compounds to account for both information content (number of pathways a compound maps to) and perturbation level. The data were then combined to determine the number of reactions showing an enzyme and at least one compound perturbed, and to determine the number of pathways having at least one enzyme and one perturbed compound perturbed. The results of the analysis are represented in Tables 16 and 17, and were difficult to interpret, illustrating that the ability to draw conclusions from compound mapping to pathways is limited when absent additional data.

[3] = test system: Saccharomyces cerevisiae wild type strain BY4743; assay: AF1 metabolite analysis (GC-MS, LC-MS) of yeast treated with antifungal drugs; assay type: cell-based

Question: Which results are given for Nc1nc[nH]n1 [Amitrole]?
Answer: phenotype observed (Arabidopsis thaliana): exhibited chlorosis and not true bleaching; characteristic symptoms (phenotypic analysis) ([1]; herbicide-treated Arabidopsis): leaf bleaching and leaf enlargement; Symptom Class ([1]; three-week-old Arabidopsis treated with herbicide, phenotypes shown in FIG. 12): 2

Question: CC[C@@H]([C@H](C)O)n1ncn(-c2ccc(N3CCN(c4ccc(OC[C@@H]5CO[C@@](Cn6cncn6)(c6ccc(F)cc6F)C5)cc4)CC3)cc2)c1=O [Posaconazole] was tested. Which “Number of Reactions Having an Enzyme and at Least One Compound Perturbed” value [2] did it give?
Answer: The value was 0.

Question: And the “Fold Change of ornithine3” value ([3]; platform GC, p-Value 0.965157424)?
Answer: Its value is 0.041.

Question: What about the “Fold Change of phosphoenolpyruvate” value ([3]; platform LC, p-Value 1) of the same compound?
Answer: The value was 0.

Question: And the “Fold Change of NacetylDglucosamine” value ([3]; platform nLC, p-Value 1)?
Answer: The value was 0.

Question: What about the “Fold Change of NacetylLornithine” value ([3]; platform nLC, p-Value 1) of the same compound?
Answer: Its value is 0.

Question: And the “Fold Change of orotic acid” value ([3]; platform nLC, p-Value 1)?
Answer: The value was 0.

Question: And the “Fold Change of phenylpyruvic acid” value ([3]; platform nLC, p-Value 1)?
Answer: The value was 0.

Question: And the “Fold Change of phosphoenolpyruvate” value ([3]; platform nLC, p-Value 1)?
Answer: Its value is 0.

Question: And the “Fold Change of pinitol” value ([3]; platform nLC, p-Value 1)?
Answer: The value was 0.

Question: And the “Fold Change of retinoic acid” value ([3]; platform nLC, p-Value 1)?
Answer: The value was 0.

Question: And the “Fold Change of salicylic/HObenzoic” value ([3]; platform nLC, p-Value 1)?
Answer: Its value is 0.

Question: And the “Fold Change of shikimic acid” value ([3]; platform nLC, p-Value 1)?
Answer: The value was 0.

Question: And the “Fold Change of sinapinic acid” value ([3]; platform nLC, p-Value 1)?
Answer: Its value is 0.

Question: And the “Fold Change of thymine” value ([3]; platform nLC, p-Value 1)?
Answer: The value was 0.

Question: What about the “Fold Change of urocanic acid” value ([3]; platform nLC, p-Value 1) of the same compound?
Answer: The value was 0.

Question: What about the “Fold Change of xanthosineDiH2O” value ([3]; platform nLC, p-Value 1) of the same compound?
Answer: Its value is 0.

Question: And the “Fold Change of zeatin” value ([3]; platform nLC, p-Value 1)?
Answer: The value was 0.

Question: What about the “Fold Change of NacetylLglucosamine” value ([3]; platform pLC, p-Value 1) of the same compound?
Answer: Its value is 0.

Question: And the “Fold Change of NacetylLglutamate” value ([3]; platform pLC, p-Value 1)?
Answer: The value was 0.

Question: What about the “Fold Change of niacinamide” value ([3]; platform pLC, p-Value 1) of the same compound?
Answer: The value was 0.

Question: What about the “Fold Change of nopaline” value ([3]; platform pLC, p-Value 1) of the same compound?
Answer: Its value is 0.

Question: What about the “Fold Change of progesterone” value ([3]; platform pLC, p-Value 1) of the same compound?
Answer: Its value is 0.

Question: And the “Fold Change of riboflavin” value ([3]; platform pLC, p-Value 1)?
Answer: Its value is 0.

Question: What about the “Fold Change of sugar-phosphate” value ([3]; platform pLC, p-Value 1) of the same compound?
Answer: Its value is 0.

Question: What about the “Fold Change of thiamine” value ([3]; platform pLC, p-Value 1) of the same compound?
Answer: Its value is 0.

Question: And the “Fold Change of thymine” value ([3]; platform pLC, p-Value 1)?
Answer: Its value is 0.

Question: What about the “Fold Change of tryptophan” value ([3]; platform pLC, p-Value 1) of the same compound?
Answer: Its value is 0.

Question: What about the “Fold Change of uric acid” value ([3]; platform pLC, p-Value 1) of the same compound?
Answer: The value was 0.

Question: And the “Fold Change of urocanic acid” value ([3]; platform pLC, p-Value 1)?
Answer: Its value is 0.

Question: What about the “Fold Change of xanthosine(diH2O)” value ([3]; platform pLC, p-Value 1) of the same compound?
Answer: The value was 0.

Question: And the “Fold Change of zeatin” value ([3]; platform pLC, p-Value 1)?
Answer: The value was 0.
